# Results as given in ChEMBL document CHEMBL3243999, “Novel anxiolytic agents derived from alpha-amino-alpha-phenyl-o-tolyl-4H-triazoles and -imidazoles” (J Med Chem, 1978).
# Columns and labels:
# Mus musculus [1] = assay: Sedative activity in ip dosed CF-1 albino mouse assessed as muscle relaxation by measuring depression of traction; type: functional
# Mus musculus [2] = assay: Muscle relaxing activity in ip dosed CF-1 albino mouse by chimney test; type: functional
# Mus musculus [3] = assay: Muscle relaxing activity in ip dosed CF-1 albino mouse assessed as depression of dish reflexes; type: functional
# Mus musculus [4] = assay: Anticonvulsant activity in ip dosed CF-1 albino mouse assessed as antagonism of nicotine-induced tonic extensor convulsions; type: functional
# Mus musculus [5] = assay: Anticonvulsant activity in ip dosed CF-1 albino mouse assessed as antagonism of nicotine-induced death; type: functional
# Mus musculus [6] = assay: Anticonvulsant activity in ip dosed CF-1 albino mouse assessed as antagonism of thiosemicarbazide-induced lethality; type: functional; conditions: CF-1, ip
# Mus musculus [7] = assay: Anticonvulsant activity in ip dosed CF-1 albino mouse assessed as antagonism of pentylenetetrazole-induced clonic convulsions; type: functional
# Mus musculus [8] = assay: Anxiolytic activity in ip dosed CF-1 albino mouse assessed as antagonism of electric shock-induced effect; type: functional; conditions: CF-1, ip
# Mus musculus [9] = assay: Anticonvulsant activity in po dosed CF-1 albino mouse assessed as antagonism of pentylenetetrazole-induced clonic convulsions; type: functional; conditions: CF-1, po
# Rattus norvegicus = assay: Anticonvulsant activity in po dosed Sprague-Dawley rat assessed as antagonism of pentylenetetrazole-induced clonic convulsions; type: functional
# [10] = Retention time of the compound by GLC-electron capture detection analysis; type: physicochemical
# Brain [11] = assay: Drug metabolism in Sprague-Dawley rat brain assessed as triazolam metabolite formation at 20 mg/kg, ip after 0.5 hrs by GLC-electron capture detection analysis; type: ADME, organism-based; design: dose 20 mg/kg, route intraperitoneal; conditions: in vivo
# Brain [12] = assay: Drug metabolism in Sprague-Dawley rat brain assessed as unchanged drug level at 20 mg/kg, ip after 20 mins by GC-MS analysis; type: ADME, organism-based; design: dose 20 mg/kg, route intraperitoneal; conditions: in vivo
# Mus musculus [13] = assay: Drug metabolism in mouse silylated blood assessed as triazolobenzodiazepine metabolite formation at 30 mg/kg, ip after 30 mins by GC-MS analysis; type: ADME, organism-based; design: dose 30 mg/kg, route intraperitoneal; conditions: in vivo, 0.5 h
# Brain [14] = assay: Drug metabolism in mouse brain assessed as un-identified metabolite formation at 20 mg/kg, ip after 0.5 hrs by GLC-electron capture detection analysis; type: ADME, organism-based; design: dose 20 mg/kg, route intraperitoneal; conditions: in vivo
# Brain [15] = assay: Drug metabolism in mouse brain assessed as unchanged drug level at 20 mg/kg, ip after 20 mins by GC-MS analysis; type: ADME, organism-based; design: dose 20 mg/kg, route intraperitoneal; conditions: in vivo
# Brain [16] = assay: Retention time of the compound in mouse brain treated with (5-chloro-2-(3,5-dimethyl-4H-1,2,4-triazol-4-yl)phenyl)(2-chlorophenyl)methanamine at 20 mg/kg, ip after 0.5 hrs by GLC-electron capture detection analysis; type: ADME, organism-based; design: dose 20 mg/kg, route intraperitoneal; conditions: in vivo
# Brain [17] = assay: Drug level in mouse brain treated with (5-chloro-2-(3,5-dimethyl-4H-1,2,4-triazol-4-yl)phenyl)(2-chlorophenyl)methanamine at 20 mg/kg, ip after 20 mins by GC-MS analysis; type: ADME, organism-based; design: dose 20 mg/kg, route intraperitoneal; conditions: in vivo
# Brain [18] = assay: Drug level in Sprague-Dawley rat brain treated with (5-chloro-2-(3,5-dimethyl-4H-1,2,4-triazol-4-yl)phenyl)(2-chlorophenyl)methanamine at 20 mg/kg, ip after 20 mins by GC-MS analysis; type: ADME, organism-based; design: dose 20 mg/kg, route intraperitoneal; conditions: in vivo
# [19] = Mus musculus, CF-1, ip, read-out: ED50
smiles,measurement,setting,value
CC(C)=NC(c1ccccc1Cl)c1cc(Cl)ccc1-n1c(C)nnc1C (stereo unspecified),ED50,Mus musculus [1]; [19],> 30 mg/kg
same,ED50,Mus musculus [2]; [19],6 mg/kg
same,ED50,Mus musculus [3]; [19],6.6 mg/kg
same,ED50,Mus musculus [4]; [19],0.75 mg/kg
same,ED50,Mus musculus [5]; [19],0.85 mg/kg
same,ED50,Mus musculus [6],0.34 mg/kg
same,ED50,Mus musculus [7]; [19],1.2 mg/kg
Cc1nnc(CN(C)C)n1-c1ccc(Cl)cc1C(N)c1ccccc1Cl (stereo unspecified),ED50,Mus musculus [1]; [19],1.4 mg/kg
same,ED50,Mus musculus [2]; [19],0.71 mg/kg
same,ED50,Mus musculus [3]; [19],0.56 mg/kg
same,ED50,Mus musculus [4]; [19],0.25 mg/kg
same,ED50,Mus musculus [5]; [19],0.18 mg/kg
same,ED50,Mus musculus [6],0.09 mg/kg
same,ED50,Mus musculus [8],40 mg/kg
same,ED50,Mus musculus [7]; [19],0.2 mg/kg
same,ED50,Mus musculus [9],0.6 mg/kg
same,ED50,Rattus norvegicus,4.4 mg/kg
CN1C(=O)CN=C(c2ccccc2)c2cc(Cl)ccc21 [DIAZEPAM],ED50,Mus musculus [1]; [19],5 mg/kg
same,ED50,Mus musculus [3]; [19],0.31 mg/kg
same,ED50,Mus musculus [4]; [19],0.11 mg/kg
same,ED50,Mus musculus [5]; [19],0.11 mg/kg
same,ED50,Mus musculus [6],0.2 mg/kg
same,ED50,Mus musculus [8],20 mg/kg
same,ED50,Mus musculus [7]; [19],0.8 mg/kg
same,ED50,Rattus norvegicus,4.8 mg/kg
"Cc1nnc(/C=N/N(C)C)n1-c1ccc(Cl)cc1C(N)c1ccccc1Cl (single isomer, unassigned; isomer 1)",ED50,Mus musculus [1]; [19],71 mg/kg
same,ED50,Mus musculus [2]; [19],22 mg/kg
same,ED50,Mus musculus [3]; [19],11.2 mg/kg
same,ED50,Mus musculus [4]; [19],5.6 mg/kg
same,ED50,Mus musculus [5]; [19],8 mg/kg
same,ED50,Mus musculus [8],> 100 mg/kg
same,ED50,Mus musculus [7]; [19],8.9 mg/kg
Cc1nnc(C)n1-c1ccc(Cl)cc1C(N)c1ccccc1Cl (stereo unspecified),ED50,Mus musculus [1]; [19],> 100 mg/kg
same,ED50,Mus musculus [2]; [19],6.3 mg/kg
same,ED50,Mus musculus [3]; [19],3.2 mg/kg
same,ED50,Mus musculus [4]; [19],0.5 mg/kg
same,ED50,Mus musculus [5]; [19],0.5 mg/kg
same,ED50,Mus musculus [6],0.4 mg/kg
same,ED50,Mus musculus [8],> 100 mg/kg
same,ED50,Mus musculus [7]; [19],1.2 mg/kg
same,ED50,Rattus norvegicus,> 50 mg/kg
same,Retention_time,[10],9 min
same,Drug metabolism,Brain [11],metabolite_notdetected
same,Drug metabolism,Brain [12],272 ng
same,Drug metabolism,Mus musculus [13],metabolite_detected
same,Drug metabolism,Brain [14],metabolite_detected
same,Drug metabolism,Brain [15],65 ng
"Cc1nnc(CO)n1-c1ccc(Cl)cc1C(N)c1ccccc1Cl (single isomer, unassigned; isomer 1)",ED50,Mus musculus [1]; [19],16 mg/kg
same,ED50,Mus musculus [2]; [19],0.63 mg/kg
same,ED50,Mus musculus [3],1.1 mg/kg
same,ED50,Mus musculus [4]; [19],0.4 mg/kg
same,ED50,Mus musculus [5]; [19],0.5 mg/kg
same,ED50,Mus musculus [7]; [19],1.2 mg/kg
same,ED50,Mus musculus [9],6.2 mg/kg
same,ED50,Rattus norvegicus,> 50 mg/kg
Cc1nnc(CN(C)C)n1-c1ccc(Cl)cc1C(=O)c1ccccc1Cl,ED50,Mus musculus [1]; [19],3.2 mg/kg
same,ED50,Mus musculus [3]; [19],0.25 mg/kg
same,ED50,Mus musculus [4]; [19],0.14 mg/kg
same,ED50,Mus musculus [5]; [19],0.14 mg/kg
same,ED50,Mus musculus [6],0.02 mg/kg
same,ED50,Mus musculus [8],50 mg/kg
same,ED50,Mus musculus [7]; [19],0.28 mg/kg
"Cc1nnc(CO)n1-c1ccc(Cl)cc1C(N)c1ccccc1Cl (single isomer, unassigned; isomer 2)",ED50,Mus musculus [1],8 mg/kg
same,ED50,Mus musculus [2],0.5 mg/kg
same,ED50,Mus musculus [3],3.5 mg/kg
same,ED50,Mus musculus [4],0.3 mg/kg
same,ED50,Mus musculus [5],0.3 mg/kg
same,ED50,Mus musculus [7],1 mg/kg
Cc1nnc(C)n1-c1ccc(Cl)cc1C(N)c1ccccc1 (stereo unspecified),ED50,Mus musculus [7]; [19],16 mg/kg
Br.Cc1nccn1-c1ccc(Cl)cc1C(N)c1ccccc1 (stereo unspecified),ED50,Mus musculus [1]; [19],32 mg/kg
same,ED50,Mus musculus [2]; [19],18 mg/kg
same,ED50,Mus musculus [3]; [19],16 mg/kg
same,ED50,Mus musculus [4]; [19],9 mg/kg
same,ED50,Mus musculus [5]; [19],9 mg/kg
CN/N=C/c1nnc(C)n1-c1ccc(Cl)cc1C(N)c1ccccc1Cl (stereo unspecified),ED50,Mus musculus [1]; [19],20 mg/kg
same,ED50,Mus musculus [2]; [19],7 mg/kg
same,ED50,Mus musculus [3]; [19],0.4 mg/kg
same,ED50,Mus musculus [4]; [19],1.3 mg/kg
same,ED50,Mus musculus [5]; [19],1.4 mg/kg
same,ED50,Mus musculus [8],> 100 mg/kg
same,ED50,Mus musculus [7]; [19],1.2 mg/kg
"Cc1nnc(C2CC2)n1-c1ccc(Cl)cc1C(N)c1ccccc1Cl (single isomer, unassigned; isomer 1)",ED50,Mus musculus [1]; [19],> 50 mg/kg
same,ED50,Mus musculus [2]; [19],40 mg/kg
same,ED50,Mus musculus [3],4.5 mg/kg
same,ED50,Mus musculus [4]; [19],2.3 mg/kg
same,ED50,Mus musculus [5]; [19],2.3 mg/kg
same,ED50,Mus musculus [7]; [19],40 mg/kg
"Cc1nnc(/C=N/N(C)C)n1-c1ccc(Cl)cc1C(N)c1ccccc1Cl (single isomer, unassigned)",ED50,Mus musculus [1],50 mg/kg
same,ED50,Mus musculus [2],16 mg/kg
same,ED50,Mus musculus [3],7.1 mg/kg
same,ED50,Mus musculus [4],4 mg/kg
same,ED50,Mus musculus [5],4 mg/kg
same,ED50,Mus musculus [7],5.6 mg/kg
Cc1nnc2n1-c1ccc(Cl)cc1C(c1ccccc1Cl)=NC2 [TRIAZOLAM],ED50,Mus musculus [1]; [19],0.7 mg/kg
same,ED50,Mus musculus [2]; [19],0.056 mg/kg
same,ED50,Mus musculus [3]; [19],0.1 mg/kg
same,ED50,Mus musculus [4]; [19],0.04 mg/kg
same,ED50,Mus musculus [5]; [19],0.04 mg/kg
same,ED50,Mus musculus [6],0.028 mg/kg
same,ED50,Mus musculus [8],23 mg/kg
same,ED50,Mus musculus [7]; [19],0.04 mg/kg
same,ED50,Rattus norvegicus,0.18 mg/kg
same,Retention_time,[10],15 min
same,Retention_time,Brain [16],15 min
same,Drug metabolism,Brain [17],190 ng
same,Drug metabolism,Brain [18],4 ng
Cc1nnc2n1-c1ccc(Cl)cc1C(c1ccccc1)=NC2 [ALPRAZOLAM],Retention_time,[10],12 min
Cc1cn(-c2ccc(Cl)cc2C(N)c2ccccc2Cl)c(C)n1 (stereo unspecified),ED50,Mus musculus [1]; [19],> 100 mg/kg
same,ED50,Mus musculus [2]; [19],> 100 mg/kg
same,ED50,Mus musculus [3]; [19],20 mg/kg
same,ED50,Mus musculus [4]; [19],3.6 mg/kg
same,ED50,Mus musculus [5]; [19],3.6 mg/kg
same,ED50,Mus musculus [6],1.8 mg/kg
same,ED50,Mus musculus [8],> 100 mg/kg
Cc1nnc(C2CC2)n1-c1ccc(Cl)cc1C(N)c1ccccc1Cl (stereo in doubt; 21b),ED50,Mus musculus [1],>100 mg/kg
same,ED50,Mus musculus [2],56 mg/kg
same,ED50,Mus musculus [3],40 mg/kg
same,ED50,Mus musculus [4],2.8 mg/kg
same,ED50,Mus musculus [5],2 mg/kg
same,ED50,Mus musculus [7],>50 mg/kg
Cc1nnc(CN)n1-c1ccc(Cl)cc1Cc1ccccc1,ED50,Mus musculus [1]; [19],25 mg/kg
same,ED50,Mus musculus [2]; [19],18 mg/kg
same,ED50,Mus musculus [3]; [19],14 mg/kg
same,ED50,Mus musculus [4]; [19],7 mg/kg
same,ED50,Mus musculus [5]; [19],6.2 mg/kg
same,ED50,Mus musculus [7]; [19],12.5 mg/kg
